From patent US20250275539A1, “APYRASE INHIBITORS” (Texas Crop Science, Inc., priority 2024, published 2025)
Read-outs that look alike come from different tables or passages of the source.

What was measured:
apyrase = assay: Apyrase inhibition assay (screen for apyrase inhibitors, phosphate release read at 630 nm); type: biochemical; conditions: inhibitor conc at 1 mM (10 μl added), 3 mM ATP, pH 6.5, room temperature 1 hr
[1] = test system: Brown Rust (Puccinia recondita) on wheat; assay: Greenhouse crop test: control of Brown Rust on wheat in combination with commercial fungicides; type: in vivo; conditions: wheat JB Diego, inoculated 24 hours after treatment, evaluated at fourteen days; for Amistar (% control of the disease, compound + fungicide): with Amistar 0.04 L/ha; for Balaya (% control of the disease, compound + fungicide): with Balaya 0.25 L/ha; for Imtrex (% control of the disease, compound + fungicide): with Imtrex 0.45 L/ha; for Proline (% control of the disease, compound + fungicide): with Proline 0.15 L/ha
Description: In this method, exemplary compounds were evaluated for their ability to control Brown Rust (Puccinia recondita) on wheat in a controlled greenhouse environment in combination with one of four fungicides, Amistar, Imtrex, Proline or Balaya. In these studies, wheat plants (JB Diego) were used. Seeds were sown in 9 cm diameter pots to a depth of 1 to 2 cm using Petersfield potting compost (75% medium grade peat, 12% screened sterilized loam, 3% medium grade vermiculite, 10% grit (5 mm screened, lime free), 1.5 kg PG mix per m3, lime to pH5.5-6.0 and wetting agent (Vitax Ultrawet 200 ml per m3) and germinated/grown at 23 C under a 16 h day/8 h night light regime. Plants were treated two to three weeks after sowing when they were at the BBCH 11 growth stage ([…]). Wheat plants were inoculated with Puccinia triticina (Brown rust) 24 hours after treatment. A track sprayer was used to treat the plants with the mixture of commercial fungicide and test compound using a water volume of 200 L/ha. Four replicates were used for each combination of fungicide, pathogen and test compound. Each plant was evaluated at fourteen days (once the disease symptoms were fully expressed) for % control of the disease. Appropriate controls were used for all experiments, including an ‘inoculation check’ wherein plants were inoculated with their specific pathogen to assess disease levels. Also, each commercial fungicide was tested on its own as a part of each treatment, this being benchmark against which the experimental compounds were evaluated. […] That is, the present compounds, although not fungicidal by themselves, enhance the activity of fungicides, thus the enhancer compounds work synergistically in combination with fungicides to control disease. • Amistar (0.04 L/ha) • Imtrex (0.45 L/ha) • Proline (0.15 L/ha) • Balaya (0.25 L/ha)

[2] = test system: Amaranthus retroflexus (pigweed); assay: Enhancement of herbicide activity: pre-emergence Amaranthus kill with metribuzin; type: in vivo; conditions: for pest or weed control at 100 g/ha: Amaranthus retroflexus; for enhancement of metribuzin herbicidal activity: compound at 100 g/ha with metribuzin, at seven and fourteen days
Description: Specifically, Amaranthus retroflexus (pigweed) was treated pre-emergence with metribuzin alone or in combination with an enhancer compound disclosed herein. Fifteen seeds of Amaranthus retroflexus were sown in soil in each pot and then sprayed with a mixture of metribuzin at the appropriate rate shown in Table 5 and the compound of this invention at 100 g/ha using a track sprayer at a water volume of 200 L/hectare. Small amounts of acetone were used to aid solubility. The pots were watered immediately after sowing and treatment and then allowed to stand in a glasshouse. Assessment of kill was made seven and fourteen days after treatment. The test included four replicates for each treatment and the control.

[3] = 168 h, read-out: Pre-Emergence Amaranthus Kill Percentage, Assessed 7 DAT, Metribuzin rate 50 g/ha
[4] = 168 h, read-out: Pre-Emergence Amaranthus Kill Percentage, Assessed 7 DAT, Metribuzin rate 100 g/ha
[5] = 168 h, read-out: Pre-Emergence Amaranthus Kill Percentage, Assessed 7 DAT, Metribuzin rate 200 g/ha
[6] = 336 h, read-out: Pre-Emergence Amaranthus Kill Percentage, Assessed 14 DAT, Metribuzin rate 50 g/ha
[7] = 336 h, read-out: Pre-Emergence Amaranthus Kill Percentage, Assessed 14 DAT, Metribuzin rate 100 g/ha
[8] = 336 h, read-out: Pre-Emergence Amaranthus Kill Percentage, Assessed 14 DAT, Metribuzin rate 200 g/ha

| SMILES | Inhibition (apyrase) | Amistar (% control of the disease, compound + fungicide) [1] [%] | Balaya (% control of the disease, compound + fungicide) [1] [%] | Imtrex (% control of the disease, compound + fungicide) [1] [%] | Proline (% control of the disease, compound + fungicide) [1] [%] | pest or weed control at 100 g/ha [2, 3] [%] | pest or weed control at 100 g/ha [2, 4] [%] | pest or weed control at 100 g/ha [2, 5] [%] | pest or weed control at 100 g/ha [2, 6] [%] | pest or weed control at 100 g/ha [2, 7] [%] | pest or weed control at 100 g/ha [2, 8] [%] | enhancement of metribuzin herbicidal activity [2] |
| --- | --- | --- | --- | --- | --- | --- | --- | --- | --- | --- | --- | --- |
| Cc1ccccc1NS(=O)(=O)c1ccc(-c2ccccc2)cc1 [Compound A-9, N-(o-tolyl)-[1,1′-biphenyl]-4-sulfonamide] | A (A is inhibition above 30%) | 65.5 | 54.9 | −13.9 | 12.4 | – | – | – | – | – | – | – |
| CCCc1ccc(S(=O)(=O)Nc2cccc(C)c2)cc1 [Compound A-62, 4-propyl-N-(m-tolyl)benzenesulfonamide] | A (A is inhibition above 30%) | 71.7 | 21.7 | 38.8 | 1.4 | 23.5 | 58.9 | 95.8 | 35.7 | 61 | 96 | significant enhancement |
| Cc1ccc(C(=O)N(C)C)cc1NS(=O)(=O)c1ccc(-c2ccccc2)cc1 [Compound A-108, 3-([1,1′-biphenyl]-4-sulfonamido)-N,N,4-trimethylbenzamide] | A (A is inhibition above 30%) | 92.1 | 31.7 | 40.5 | −1.2 | 6.3 | 76.5 | 100 | 13.5 | 78.8 | 100 | significant enhancement |
| O=C1Cc2cc(NS(=O)(=O)c3ccc(-c4ccccc4)cc3)ccc2N1 [Compound A-8, N-(2-oxoindolin-5-yl)-[1,1′-biphenyl]-4-sulfonamide] | A (A is inhibition above 30%) | 72.9 | 77.2 | 47.8 | 13.3 | 12.8 | 28.6 | 100 | 18.8 | 35.7 | 100 | significant enhancement |
| COc1cccc(NS(=O)(=O)c2ccc(-c3ccc(C)cc3)cc2)c1 [Compound A-34, N-(3-methoxyphenyl)-4′-methyl-[1,1′-biphenyl]-4-sulfonamide] | A (A is inhibition above 30%) | 51.9 | 48.3 | 34.5 | 3.8 | 28.3 | 70.5 | 100 | 37.3 | 77.8 | 100 | significant enhancement |
| O=S(=O)(Nc1cccc(C(F)(F)F)c1)c1cnc(-c2ccccc2)nc1 [Compound A-37, 2-phenyl-N-(3-(trifluoromethyl)phenyl)pyrim-idine-5-sulfonamide] | B (B is inhibition from 20% to 30%) | 58.7 | 78.0 | 12.7 | −1.2 | – | – | – | – | – | – | – |
| O=S(=O)(Nc1ccc(-c2nncs2)cc1)c1ccc(-c2ccccc2)cc1 [Compound A-29, N-(4-(1,3,4-thiadiazol-2-yl)phenyl)-[1,1′-biphenyl]-4-sulfonamide] | A (A is inhibition above 30%) | 67.0 | 59.5 | 60.1 | 18.7 | 13.2 | 66.7 | 87.7 | 17.1 | 71.4 | 90 | significant enhancement |
| Cc1cccc(NS(=O)(=O)c2ccc(C3CCCCC3)cc2)c1 [Compound A-64, 4-cyclohexyl-N-(m-tolyl)benzenesulfonamide] | A (A is inhibition above 30%) | 69.5 | −75.9 | −15.4 | 2.9 | – | – | – | – | – | – | – |
| O=S(=O)(Nc1cccc(Cl)c1N1CCOCC1)c1ccc(-c2ccccc2)cc1 [Compound A-116, N-(3-chloro-2-morpholinophenyl)-[1,1′-biphenyl]-4-sulfonamide] | A (A is inhibition above 30%) | 68.0 | 24.2 | 48.4 | 14.6 | – | – | – | – | – | – | – |
| Cc1ccc(C)c(NS(=O)(=O)c2ccc(-c3ccccc3)cc2)c1 [Compound A-5, N-(2,5-dimethylphenyl)-[1,1′-biphenyl]-4-sulfonamide] | A (A is inhibition above 30%) | 89.2 | 13.0 | 24.3 | 15.1 | – | – | – | – | – | – | – |
| CN(c1ccccc1)S(=O)(=O)c1ccc(-c2ccccc2)cc1 [Compound A-10, N-methyl-N-phenyl-[1,1′-biphenyl]-4-sulfonamide] | A (A is inhibition above 30%) | 87.4 | 56.5 | 15.0 | 4.2 | – | – | – | – | – | – | – |
| O=S(=O)(Nc1ccc2c(c1)CCCN2)c1ccc(-c2ccccc2)cc1 [Compound A-99, N-(1,2,3,4-tetrahydroquinolin-6-yl)-[1,1′-biphenyl]-4-sulfonamide] | A (A is inhibition above 30%) | 71.4 | 84.1 | 16.1 | 5.7 | – | – | – | – | – | – | – |
